Experimental data as given in patent publication EP0626016B1, “[…] […]” (BRITISH TECHNOLOGY GROUP LIMITED, priority 1992, dated 1993).
Where “and” joins values, the source holds several entries; their conditions need not be identical. Equal entries are not always repeated. Where two headings read alike, the source gives them in different places.

Target: T1, HRP Type VIA (Armoracia rusticana, UniProt P00433)
T1 sequence (P00433 31-338): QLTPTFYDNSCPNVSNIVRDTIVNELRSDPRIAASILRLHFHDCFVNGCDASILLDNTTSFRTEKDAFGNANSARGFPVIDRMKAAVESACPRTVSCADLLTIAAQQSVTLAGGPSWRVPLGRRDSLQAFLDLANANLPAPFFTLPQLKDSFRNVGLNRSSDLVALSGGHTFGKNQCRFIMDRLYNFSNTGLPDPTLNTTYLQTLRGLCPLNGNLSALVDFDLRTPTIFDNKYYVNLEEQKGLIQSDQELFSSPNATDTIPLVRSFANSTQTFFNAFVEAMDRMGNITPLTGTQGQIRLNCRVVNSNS

[1] = 0.01 mg/ml, 10µl test compound, control value in brackets not reported
[2] = 0.1 mg/ml, 10µl test compound, control value in brackets not reported
[3] = 1 mg/ml, 10µl test compound, control value in brackets not reported

(a) Decrease in background (without HRP with test cpd.) (0.01 mg/ml, 10µl test compound)	(b) Increase in signal (with HRP, with test cpd.) (0.01 mg/ml, 10µl test compound)	(c) Increase in signal: background ratio (0.01 mg/ml, 10µl test compound)	(d) Signal: Background: ratio (control = with no enhancer) [1]	(a) Decrease in background (without HRP with test cpd.) (0.1 mg/ml, 10µl test compound)	(b) Increase in signal (with HRP, with test cpd.) (0.1 mg/ml, 10µl test compound)	(d) Signal: Background: ratio (control = with no enhancer) [2]	(a) Decrease in background (without HRP with test cpd.) (1 mg/ml, 10µl test compound)	(b) Increase in signal (with HRP, with test cpd.) (1 mg/ml, 10µl test compound)	(c) Increase in signal: background ratio (1 mg/ml, 10µl test compound)	(d) Signal: Background: ratio (control = with no enhancer) [3]	Compound	(a) Decrease in background (without HRP with test cpd.)	(b) Increase in signal (with HRP, with test cpd.)	(c) Increase in signal: background ratio	(d) Signal: Background: ratio (control = with no enhancer)	(c) Increase in signal: background ratio (0.1 mg/ml, 10µl test compound)
											Clc1cc(Cl)c(OB(Oc2cc(Cl)c(Cl)cc2Cl)c2cc(Cl)c(Cl)cc2Cl)cc1Cl [Compound 1039, di-(3',4',6'-trichlorophenoxy)-3,4,6-trichlorophenylborane]	Y	N	N (key: column (a) shows whether the test compound lowered the light output from the luminol-hydrogen peroxide solution (Y = yes; N = no)	3.4 (2.9)	
											Clc1cc(Cl)cc(OB(Oc2cc(Cl)cc(Cl)c2)c2cc(Cl)cc(Cl)c2)c1 [Compound 1040, di-(3',5'-dichlorophenoxy)-3,5-dichlorophenylborane]	Y	N		4.7 (4.5) and 3.9 (2.9)	
Y	N	N (N = no)		Y	N		Y	N	N (N = no)		c1ccc2c(OB(Oc3cccc4ccccc34)c3cccc4ccccc34)cccc2c1 [Compound 1047, di-(1-naphthoxy)-l-naphthylborane]					N (N = no)
Y	N	N (N = no)		Y	N	3.2 (2.9)	Y	N	N (N = no)		BrCc1ccccc1OB(Oc1ccccc1CBr)c1ccccc1CBr [Compound 1049, 2-boromethylphenyl-di-(2'-boromethylphenoxy)borane]					N (N = no)
Y	N	N (N = no)		Y	N	3.3 (2.9)	Y	N	N (N = no)		CSCc1ccccc1B(O)O [Compound 1050, 2-(methylthiomethyl)phenylboronic acid]					N (N = no)
											bis(catechol)borate [Compound 1013]	Y	N			
Y	N	N (N = no)	2.3	Y	N	1.6	Y	N	N (N = no)	1.8 (2.5)	boraxarophenanthrene [Compound 1014]					N (N = no)
Y	N	N (N = no)		Y	N		Y	N	N (N = no)		methyl-(2-tolylboronic acid)sulfoxide [Compound 1051]					N (N = no)

Compound	(a) Decrease in background (without HRP with test cpd.) (0.01 mg/ml, 10µl test compound)	(b) Increase in signal (with HRP, with test cpd.) (0.01 mg/ml, 10µl test compound)	(c) Increase in signal: background ratio (0.01 mg/ml, 10µl test compound)	(d) Signal: Background: ratio (control = with no enhancer) [1]	(a) Decrease in background (without HRP with test cpd.) (0.1 mg/ml, 10µl test compound)	(b) Increase in signal (with HRP, with test cpd.) (0.1 mg/ml, 10µl test compound)	(d) Signal: Background: ratio (control = with no enhancer) [2]	(a) Decrease in background (without HRP with test cpd.) (1 mg/ml, 10µl test compound)	(b) Increase in signal (with HRP, with test cpd.) (1 mg/ml, 10µl test compound)	(c) Increase in signal: background ratio (1 mg/ml, 10µl test compound)	(d) Signal: Background: ratio (control = with no enhancer) [3]	(a) Decrease in background (without HRP with test cpd.)	(b) Increase in signal (with HRP, with test cpd.)	(c) Increase in signal: background ratio	(d) Signal: Background: ratio (control = with no enhancer)	(c) Increase in signal: background ratio (0.1 mg/ml, 10µl test compound)
Clc1ccc(OB(Oc2ccc(Cl)cc2)c2ccc(Cl)cc2)cc1 [Compound 1041, 4-chlorophenyl-di-(4'-chlorophenoxy)borane]	Y	Y	Y (Column (c) shows whether there was an increase in the signal:background ratio by over 25% of the control value (Y = yes)	6.3 (1.9)	Y	Y	360.2 (2.8)	Y	Y	Y (Column (c) shows whether there was an increase in the signal:background ratio by over 25% of the control value (Y = yes)	2606.2(4.5)					Y (Column (c) shows whether there was an increase in the signal:background ratio by over 25% of the control value (Y = yes)
CCCCOB(OCCCC)c1ccc(Br)cc1 [Compound 1044, 4-bromophenyl-di-n-butoxyborane]	Y	Y	Y (Column (c) shows whether there was an increase in the signal:background ratio by over 25% of the control value (Y = yes)	38.5 (1.9)	Y	Y	623.1 (2.7)	Y	N	Y (Column (c) shows whether there was an increase in the signal:background ratio by over 25% of the control value (Y = yes)	147.1 (4.5)					Y (Column (c) shows whether there was an increase in the signal:background ratio by over 25% of the control value (Y = yes)
O=C(O)c1ccc(B(O)O)cc1[N+](=O)[O-] [Compound 1045, 4-carboxy-3-nitrophenylboronic acid]	Y	N	N (N = no)	2.2 (2.0)	Y	Y	18.1 (2.8)	Y	N	Y (Column (c) shows whether there was an increase in the signal:background ratio by over 25% of the control value (Y = yes)	68.5 (4.5)					Y (Column (c) shows whether there was an increase in the signal:background ratio by over 25% of the control value (Y = yes)
boroglycine [Compound 1015]	Y	Y	N (N = no)	2.3	Y	Y	2.9	Y	N	Y (Column (c) shows whether there was an increase in the signal:background ratio by over 25% of the control value (Y = yes)	3.1 (2.1)					Y (Column (c) shows whether there was an increase in the signal:background ratio by over 25% of the control value (Y = yes)
dimethylphenylboronic acid [Compound 1036]	Y	N	Y (Column (c) shows whether there was an increase in the signal:background ratio by over 25% of the control value (Y = yes)	2.6 (2.0)	Y	N	7.6 (2.9)	Y	N	N (N = no)						Y (Column (c) shows whether there was an increase in the signal:background ratio by over 25% of the control value (Y = yes)
diphenylboronic anhydride [Compound 1048]	Y	Y	Y (Column (c) shows whether there was an increase in the signal:background ratio by over 25% of the control value (Y = yes)	3.1 (1.8)	Y	Y	139.0 (2.7)	Y	N	Y (Column (c) shows whether there was an increase in the signal:background ratio by over 25% of the control value (Y = yes)	100.0 (4.5)					Y (Column (c) shows whether there was an increase in the signal:background ratio by over 25% of the control value (Y = yes)
